Laboratory results published in patent US20140121256A1, “METHOD OF TREATING MUSCULAR WEAKNESS COMPRISING ADMINISTERING A COMPOSITION COMPRISING AN EFFECTIVE AMOUNT OF HISTAMINE AND/OR SEROTONIN” (BEECH TREE LABS, INC., priority 2012, published 2014).

Columns and labels:
[1] = system: normal human BioArtificial Muscles (mBAMs engineered from human skeletal myoblasts); test: Tetanic (active) force of mBAMs, MyoForce Analysis System; assay type: cell-based; conditions: 80 nM; after 3-4 days of drug treatment; p<0.001
Description: According to this example, a composition comprising histamine and serotonin was administered at 6 different concentrations on normal human BioArtificial Muscles (mBAMs engineered from human skeletal rmyoblasts) for effects on strength (active force generation) and injury using Myomics' MyoForce Analysis System (MFAS™).
A solution comprising 200 times the dosage of the histamine and serotonin present in a typical therapeutic drop (i.e., 1 mg histamine and 16 mg serotonin in PBS) stored at 4° C. was administered to a cell culture comprising human skeletal muscle cells previously isolated from a normal (disease-free) person were used for this study. Cells were expanded in culture in a Growth Medium optimized for human skeletal muscle (SKGM/15) for 5 days before engineering into bioartificial muscles (mBAMs). On the day of engineering, mBAMs, cells were trypsinized and counted following standard laboratory protocols.
A sterile 96 well MyoForce plate was used for tissue engineering the mBAMs. Myomics' Robotic Tissue Engineering Platform was used to engineer 72 mBAMs in approximately 10 minutes by mixing cells with an extracellular matrix solution and casting in the plate wells. The plate containing the mBAMs was maintained for 2 days at 37° C. in SKGM/15, then incubated in an optimized differentiation medium for the remainder of the experiment. […]

[2] = system: C57BL/10SCSN-Dmd^mdx/J mice; test: Grip strength tests (triangle and mesh) in mdx mouse model of DMD; assay type: in vivo; conditions: 1×, 4×, 8×, twice daily
Excerpt: Female mouse strain C57BL/10SCSN-Dmd^mdx/J (Jackson laboratories) is a strain of mice that is most similar in affliction to humans with DMD. The mdx mutation of Dmd is recessive and heterozygous females are visually indistinguishable from wild-type mice. […] One of the drawbacks of this mouse model is that by six weeks (10 weeks of age) the afflicted mice mimic the wild type control mice. This is attributed to the compensatory function of the dystrophin-related protein utrophin, which is highly up regulated in regenerating muscle fibers in adult Dmd^mdx mutants. The histamine and serotonin formulation was evaluated using this mouse model to determine its effects on DMD.
The first experiment conducted focused on whether any difference could be detected in mice receiving the histamine and serotonin formulation vs. control.
Injections started the following day.
Measurements to determine effectiveness of histamine and serotonin formulation were conducted using two different methods: 1. a wire hang test was utilized to see how long the mice were able to hang onto a wire before releasing and falling, and 2. a grip strength meter device (Columbus Instruments) was used to measure the peak force exerted by the animal when pulled. […]
For both of the grip strength tests, ten measurements were taken per mouse and the average was recorded.

## CC(=O)OCC(=O)[C@@]12N=C(C)O[C@@H]1C[C@H]1[C@@H]3CCC4=CC(=O)C=C[C@]4(C)[C@H]3[C@@H](O)C[C@@]12C [deflazacort]
[1]
  increase in tetanic force compared to untreated controls: 32%

## NCCc1c[nH]cn1 [histamine]
[2]; third experiment, histamine alone 0.4×
  triangle and mesh grip strength vs PBS control: improves performance in both the Triangle and Mesh tests

## NCCc1c[nH]c2ccc(O)cc12 [serotonin, 5-hydroxytryptamine]
[2]; fourth experiment, serotonin alone 0.4×
  grip strength tests vs PBS controls: no statistically significant differences
